Test results from article PMC6273912, “Novel 5-Substituted 2-(Aylmethylthio)-4-chloro-N-(5-aryl-1,2,4-triazin-3-yl)benzenesulfonamides: Synthesis, Molecular Structure, Anticancer Activity, Apoptosis-Inducing Activity and Metabolic Stability” (Molecules, 2016).
Where two headings read alike, the source gives them in different places.

Tests used:
MCF-7 (breast cancer) = experiment: MTT cell viability assay, MCF-7; type: cell-based, human; conditions: Homo sapiens, MCF7, 72 h of incubation, mean ± SD
Procedure: (§1) All chemicals, if not stated otherwise, were obtained from Sigma-Aldrich (St. Louis, MO, USA). The MCF-7 cell line was purchased from Cell Lines Services (Eppelheim, Germany), the HeLa and HCT-116 cell lines were obtained from the Department of Microbiology, Tumor and Cell Biology, Karolinska Institute (Stockholm, Sweden). Cells were cultured in Dulbecco’s modified Eagle’s medium (DMEM) supplemented with 10% fetal bovine serum, 2 mM glutamine, 100 units/mL penicillin, and 100 μg/mL streptomycin. Cultures were maintained in a humidified atmosphere with 5% CO2 at 37 °C in an incubator (HeraCell, Heraeus, Langenselbold, Germany).
(§2) Cell viability was determined using the MTT (3-(4,5-dimethylthiazol-2-yl)-2,5-diphenyl-tetrazoliumbromide) assay. Stock solutions of the studied compounds were prepared in 100% DMSO. […] Cells were seeded in 96-well plates at a density of 5 × 10^3 cells/well and treated for 72 h with the examined compounds in the concentration range 1–100 μM (1, 10, 25, 50 and 100 μM). Following treatment, MTT (0.5 mg/mL) was added to the medium and cells were further incubated for 2 h at 37 °C. Cells were lysed with DMSO and the absorbance of the formazan solution was measured at 550 nm with a plate reader (1420 multilabel counter, Victor, Jügesheim, Germany). […] The experiment was performed in triplicate. Values are expressed as the mean ± SD of at least three independent experiments.

HCT-116 (colon cancer) = experiment: MTT cell viability assay, HCT-116; type: cell-based, human; conditions: 72 h of incubation, mean ± SD
Procedure: as §1, §2

[1] = system: HeLa as well as HCT-116 cells; experiment: MTT cell viability assay, HeLa and HCT-116; type: cell-based, human; conditions: summary over the two cell lines; for IC50: Homo sapiens, read-out: IC50 toward HeLa as well as HCT-116
Procedure: as §1, §2

HeLa (cervical cancer) = experiment: MTT cell viability assay, HeLa; type: cell-based, human; conditions: for IC50: 72 h of incubation, mean ± SD
Procedure: as §1, §2

[2] = Metabolic stability with human liver microsomes and NADPH; type: in vitro ADME; conditions: liver microsomes
Procedure: Stock solutions of studied compounds were prepared at concentration of 10 mM in DMSO. […] Incubation mixture contained 10 μM of a studied derivative, 1 mM of NADPH (Sigma-Aldrich) and 0.5 mg/mL of human liver microsomes (HLM, Sigma-Aldrich) in potassium phosphate buffer (0.1 M, pH 7.4). Incubation was carried out in thermostat at 37 °C and started by addition of studied compound. 50 μL samples were taken after 5, 15, 30, 45 and 60 min. Enzymatic reaction was terminated by the addition of the equal volume of ice-cold acetonitrile containing 10 μM of alprazolam (Sigma-Aldrich) serving as internal standard (IS). Control incubations were performed without NADPH to assess chemical instability. After collection, samples were immediately centrifuged (10 min, 10,000 rpm) and resulted supernatant was directly analyzed or kept in −80 °C until LC-MS analysis. Natural logarithm of a compound over IS peak area ratio was plotted versus incubation time. Metabolic half-time (t1/2) was calculated from the slope of the linear regression, as reported in [48].
LC-MS analysis was performed on an Agilent 1260 system coupled to SingleQuad 6120 mass spectrometer (Agilent Technologies, Santa Clara, CA, USA). Ascentis Express ES-CN (2.1 mm × 100 mm, 2.7 μm, Supelco Analytical, Bellefonte, PA, USA) was used in reversed-phase mode with gradient elution starting with 50% of phase A (10 mM ammonium formate in water) and 50% of phase B (10 mM ammonium formate in acetonitrile-water mixture, 95:5 v/v). […] Total analysis time was 10 min at 25 °C, flow rate was 0.4 mL/min and the injection volume was 20 μL. The mass spectrometer was equipped with electrospray ion source and operated in positive ionization. Mass analyzer was set individually to each compound to detect [M + H]^+ pseudomolecular ions. MSD parameters of the ESI source were as follows: nebulizer pressure 50 psig (N2), drying gas […] (N2), drying gas temperature 300 °C, capillary voltage 3.5 kV, fragmentor voltage 100 V.

HCT-116, HeLa and MCF-7 = experiment: MTT cell viability assay, all tested cell lines together; type: cell-based; conditions: Homo sapiens; average over HCT-116, HeLa and MCF-7; read-out: average IC50 against all tested cell lines
Procedure: as §1, §2

[3] = pH 7.4, human liver microsomes 0.5 mg/mL, 1 mM NADPH, 10 μM compound, pH 7.4, 37 °C, up to 60 min, read-out: In Vitro Metabolic Half-Life t1/2

| IC50 (MCF-7 (breast cancer)) [µM] | IC50 (HCT-116 (colon cancer); Homo sapiens, HCT-116, 72 h) [µM] | IC50 toward HeLa as well as HCT-116 [1] | IC50 (HeLa (cervical cancer); Homo sapiens, 72 h) [µM] | half-life at 10 μM [2, 3] [min] | half-life at 10 μM ([2]; pH 7.4, value in parentheses beside >60, beyond the 60 min incubation, human liver microsomes, NADPH, read-out: In Vitro Metabolic Half-Life t1/2 (min), value in parentheses) [min] | IC50 (HCT-116, HeLa and MCF-7) [µM] | IC50 [1] [µM] | IC50 (HCT-116 (colon cancer)) [µM] | IC50 (HeLa (cervical cancer)) [µM] | melting point [°C] | SMILES | viability at 100 µM (HeLa (cervical cancer); Homo sapiens, HeLa, 72 h, 100 μM, read-out: Viability of cell line at 100 μM (HeLa)) [%] |
| --- | --- | --- | --- | --- | --- | --- | --- | --- | --- | --- | --- | --- |
| 120 ± 5 | 200 ± 4 | loss of activity | 100 ± 6 |  |  |  |  |  |  |  | Cc1cc(S(=O)(=O)Nc2nncc(-c3ccc(C(F)(F)F)cc3)n2)c(SCc2ccccc2)cc1Cl [Compound 28, 2-Benzylthio-4-chloro-5-methyl-N-[5-(4-trifluoromethylphenyl)-1,2,4-triazin-3-yl]benzenesulfonamide] |  |
| 67 ± 1 | 85 ± 2 |  | 90 ± 4 | 24.9 |  |  |  |  |  |  | COc1cccc(-c2cnnc(NS(=O)(=O)c3cc(C)c(Cl)cc3SCc3ccccc3)n2)c1 [Compound 30, 2-Benzylthio-4-chloro-N-[5-(3-methoxyphenyl)-1,2,4-triazin-3-yl]5-methylbenzenesulfonamide] |  |
| 77 ± 2 | 140 ± 7 |  | 150 ± 6 | 17.6 |  |  |  |  |  |  | COc1ccc(-c2cnnc(NS(=O)(=O)c3cc(C)c(Cl)cc3SCc3ccccc3)n2)cc1OC [Compound 31, 2-Benzylthio-4-chloro-N-[5-(3,4-dimethoxyphenyl)-1,2,4-triazin-3-yl]-5-methylbenzenesulfonamide] |  |
| 68 ± 3 | 51 ± 1 |  | 73 ± 1 | > 60 | 154 | < 71 | 51 to 85 |  |  |  | Cc1cc(S(=O)(=O)Nc2nncc(-c3ccc(C(F)(F)F)cc3)n2)c(SCc2ccc(C(F)(F)F)cc2)cc1Cl [Compound 34, 4-Chloro-5-methyl-2-[4-(trifluoromethyl)benzylthio]-N-[5-(4-trifluoromethylphenyl)-1,2,4-triazin-3-yl]-benzenesulfonamide] |  |
| 78 ± 2 | 68 ± 3 |  | 69 ± 1 | 42.4 |  | < 71 |  |  |  |  | COc1ccc(-c2cnnc(NS(=O)(=O)c3cc(C)c(Cl)cc3SCc3ccc(C(F)(F)F)cc3)n2)cc1 [Compound 35, 4-Chloro-N-[5-(4-methoxyphenyl)-1,2,4-triazin-3-yl]-5-methyl-2-[4-(trifluoromethyl)benzylthio]benzene-sulfonamide] |  |
| 96 ± 4 | 49 ± 2 |  | 55 ± 2 | 13.9 |  | < 71 |  |  |  |  | Cc1cc(S(=O)(=O)Nc2nncc(-c3cccc(F)c3)n2)c(SCc2cccc3ccccc23)cc1Cl [Compound 36, 4-Chloro-N-[5-(3-fluorophenyl)-1,2,4-triazin-3-yl]-5-methyl-2-[(naphthalene-1-yl)methylthio]benzene-sulfonamide] |  |
| 69 ± 1 | 36 to 38 |  | 34 to 42 | < 5 |  | 50 |  | 38 ± 2 | 42 ± 1 |  | COc1ccc(-c2cnnc(NS(=O)(=O)c3cc(C)c(Cl)cc3SCc3cccc4ccccc34)n2)cc1 [Compound 38, 4-Chloro-N-[5-(4-methoxyphenyl)-1,2,4-triazin-3-yl]-5-methyl-2-[(naphthalene-1-yl)methylthio]benzene-sulfonamide] |  |
| 95 ± 3 | 83 ± 2 |  | 93 ± 1 |  |  |  |  |  |  | 208 to 211 | Cc1cc(S(=O)(=O)Nc2nncc(-c3cccc(F)c3)n2)c(SCc2c(C)noc2C)cc1Cl [Compound 39, 4-Chloro-2-[(3,5-dimethylizoxazol-4-yl)methylthio]-N-[5-(3-fluorophenyl)-1,2,4-triazin-3-yl]-5-methyl-benzenesulfonamide] |  |
| 98 ± 3 | 77 ± 1 |  | 85 ± 2 |  |  |  | 51 to 85 |  |  |  | Cc1cc(S(=O)(=O)Nc2nncc(-c3ccc(C(F)(F)F)cc3)n2)c(SCc2c(C)noc2C)cc1Cl [Compound 40, 4-Chloro-2-[(3,5-dimethylizoxazol-4-yl)methylthio]-5-methyl-N-[5-(4-trifluoromethylphenyl)-1,2,4-triazin-3-yl]benzenesulfonamide] |  |
| 78 ± 3 | 75 ± 5 |  | 79 ± 1 | 17.5 |  |  |  |  |  |  | COc1ccc(-c2cnnc(NS(=O)(=O)c3cc(C(=O)Nc4ccc(Cl)cc4)c(Cl)cc3SCc3ccccc3)n2)cc1 [Compound 47, 4-Benzylthio-2-chloro-N-(4-chlorophenyl)-5-{N-[5-(4-methoxyphenyl)-1,2,4-triazin-3-yl]sulfamoyl}benzamide] |  |
| 69 ± 1 | 70 ± 2 |  |  | 26.5 |  |  |  |  |  |  | Cc1ccc(NC(=O)c2cc(S(=O)(=O)Nc3nncc(-c4ccc(C(F)(F)F)cc4)n3)c(SCc3ccccc3)cc2Cl)cc1 [Compound 52, 4-Benzylthio-2-chloro-N-(4-methylphenyl)-5-{N-[5-(4-trifluoromethylphenyl)-1,2,4-triazin-3-yl]sulfamoyl}-benzamide] | 100 |
| 270 ± 13 | 230 ± 18 |  | 230 ± 5 |  |  |  |  |  |  |  | COc1ccc(NC(=O)c2cc(S(=O)(=O)Nc3nncc(-c4cc(OC)c(OC)c(OC)c4)n3)c(SCc3ccccc3)cc2Cl)cc1 [Compound 60, 4-Benzylthio-2-chloro-N-(4-methoxyphenyl)-5-{N-[5-(3,4,5-trimethoxyphenyl)-1,2,4-triazin-3-yl]sulfamoyl}-benzamide] |  |
